Data on one compound can be found in article PMC6270165, “Synthesis and Biological Evaluation of 3-Benzisoxazolyl-4-indolylmaleimides as Potent, Selective Inhibitors of Glycogen Synthase Kinase-3β” (Molecules, 2013).

What all share (type): biochemical
One test has as its target T1, BRAF (Homo sapiens, UniProt P15056).
T1 construct: purchased Carna Biosciences, Inc
Briefly: BRAF kinase assay (HTRF). As to conditions: read-out: BRAF inhibition% at 0.8 μg/mL (~2 μM). As for the experimental part:
(§1) GSK3β belongs to CMGC family. Here, the other family members were used to evaluate the selectivity of GSK3β inhibitors, including PKC-epsilon (AGC family), JAK2 (TK family), Braf (TKL family), DRAK2 (CAMK family) and IKKβ (other family).The recombinant GST-GSK-3βprotein was expressed in Escherichia coli strain BL21-Codon Plus (DE3), purified by GSTrap affinity chromatography, and cleaved by thrombin. The GSK-3β kinase assay was carried out with the Z´-LYTETM Kinase Assay kit Ser/Thr 9 Peptide substrate (Invitrogen, Grand, NY, USA) in 10 μL reaction volume containing 50 nM enzyme, 30 μM ATP and 2 μM substrate peptide. Drak2 Proteins were presented by professor Jiang-ping Wu (Laboratory of Immunology, Research Centre, CHUM, Notre Dame Hospital, Pavilion DeSève). The Drak2 kinase reaction was performed in a final assay volume of 3.4 μL using the ADP-GLO Kinase Assay Kit (Promega, Madison, WI, USA), according the ADP-GLO protocol and read on an EnVision plate reader. The recombinant PKC-epsilon, IKKβ, and JAK2 with N-terminal His-tag were expressed using baculovirus expression system and purified with Ni-Beads. BRAF protein was from Carna Biosciences, Inc. (Kobe Port Island, Japan). And the related kinase reactions were performed in a final assay volume of 10 μL using the related HTRF Assay Kit (Cisbio, Codolet, France). Reactions were according the HTRF protocol and read on an EnVision plate reader. All reactions were carried out in triplicate. […] Data were expressed as mean ± SE.
For orientation: Time-resolved FRET reads energy transfer from a long-lived donor to a nearby acceptor.

Another test concerns the target T2, IKK2 (Homo sapiens, UniProt O14920).
T2 construct: His-tag (N); made in house
T2 sequence (O14920 1-756): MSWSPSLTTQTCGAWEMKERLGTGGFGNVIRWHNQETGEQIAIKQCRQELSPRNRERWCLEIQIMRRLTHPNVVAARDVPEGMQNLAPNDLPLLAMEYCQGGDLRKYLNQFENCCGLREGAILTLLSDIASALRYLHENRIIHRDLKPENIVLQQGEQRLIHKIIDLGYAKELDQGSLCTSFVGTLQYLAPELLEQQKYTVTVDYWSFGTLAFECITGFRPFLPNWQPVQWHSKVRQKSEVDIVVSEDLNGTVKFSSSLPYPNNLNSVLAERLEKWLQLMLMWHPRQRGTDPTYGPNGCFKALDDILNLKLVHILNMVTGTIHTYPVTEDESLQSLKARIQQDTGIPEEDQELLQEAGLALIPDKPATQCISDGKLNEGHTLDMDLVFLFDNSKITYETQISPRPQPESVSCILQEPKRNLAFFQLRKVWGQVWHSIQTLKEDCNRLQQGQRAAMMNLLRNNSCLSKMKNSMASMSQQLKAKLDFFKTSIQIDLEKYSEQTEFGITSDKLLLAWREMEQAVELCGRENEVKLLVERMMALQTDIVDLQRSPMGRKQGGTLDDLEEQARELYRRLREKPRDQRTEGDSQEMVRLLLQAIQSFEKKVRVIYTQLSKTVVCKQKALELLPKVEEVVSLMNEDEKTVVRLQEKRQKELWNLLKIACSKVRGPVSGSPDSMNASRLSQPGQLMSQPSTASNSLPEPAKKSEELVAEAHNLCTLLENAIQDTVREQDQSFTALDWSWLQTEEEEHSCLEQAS
Briefly: IKK2 (IKKβ) kinase assay (HTRF). As to conditions: read-out: IKK2 inhibition% at 0.8 μg/mL (~2 μM). As for the experimental part: as §1

Another test deals with T3, Drak2 (Homo sapiens, UniProt O94768).
T3 sequence (O94768 1-372): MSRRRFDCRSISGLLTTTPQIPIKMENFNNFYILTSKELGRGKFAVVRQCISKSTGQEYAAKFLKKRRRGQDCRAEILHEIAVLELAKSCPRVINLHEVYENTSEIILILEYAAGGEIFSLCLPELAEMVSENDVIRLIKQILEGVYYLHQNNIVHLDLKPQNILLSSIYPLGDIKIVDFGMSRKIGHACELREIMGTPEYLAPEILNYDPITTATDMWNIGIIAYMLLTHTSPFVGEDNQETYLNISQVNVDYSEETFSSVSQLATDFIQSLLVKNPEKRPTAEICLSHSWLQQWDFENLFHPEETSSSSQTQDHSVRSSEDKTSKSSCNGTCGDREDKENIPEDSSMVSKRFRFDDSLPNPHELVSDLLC
Briefly: Drak2 kinase assay (ADP-GLO). As to conditions: read-out: Drak2 inhibition% at 0.8 μg/mL (~2 μM). As for the experimental part: as §1
Background: ADP-Glo first removes unused ATP, then detects ADP through luciferase.

T1 sequence (P15056 whole entry): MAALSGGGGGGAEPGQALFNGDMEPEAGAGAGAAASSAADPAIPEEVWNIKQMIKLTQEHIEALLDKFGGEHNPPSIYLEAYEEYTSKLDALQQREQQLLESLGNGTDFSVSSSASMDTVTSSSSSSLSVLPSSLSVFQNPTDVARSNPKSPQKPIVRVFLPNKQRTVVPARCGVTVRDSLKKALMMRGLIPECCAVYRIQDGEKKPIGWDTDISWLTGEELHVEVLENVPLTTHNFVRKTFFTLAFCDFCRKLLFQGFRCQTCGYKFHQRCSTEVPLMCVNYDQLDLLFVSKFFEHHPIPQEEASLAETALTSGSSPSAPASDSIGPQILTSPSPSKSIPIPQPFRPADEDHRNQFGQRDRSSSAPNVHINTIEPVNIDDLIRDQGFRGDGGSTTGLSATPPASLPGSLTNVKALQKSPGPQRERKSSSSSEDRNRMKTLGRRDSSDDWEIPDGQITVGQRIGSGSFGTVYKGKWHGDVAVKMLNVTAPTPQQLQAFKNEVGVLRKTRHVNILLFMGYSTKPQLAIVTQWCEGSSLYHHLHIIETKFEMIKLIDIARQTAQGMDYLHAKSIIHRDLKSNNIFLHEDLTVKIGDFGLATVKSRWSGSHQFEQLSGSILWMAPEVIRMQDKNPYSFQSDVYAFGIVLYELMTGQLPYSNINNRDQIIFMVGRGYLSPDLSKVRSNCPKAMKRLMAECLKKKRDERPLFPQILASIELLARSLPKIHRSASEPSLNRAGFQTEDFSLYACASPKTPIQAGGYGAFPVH

Take `O=C1NC(=O)C(c2cn(CCCN3CCOCC3)c3ccc(Br)cc23)=C1c1noc2ccccc12` [7c, 3-(Benzo[d]isoxazol-3-yl)-4-(5-bromo-1-(3-morpholinopropyl)-1H-indol-3-yl)-1H-pyrrole-2,5-dione]: the inhibition at 2 µM on BRAF was 3.4%; at IKK2, 13.1%; at Drak2, 1.67%.
